Data on seven molecules can be found in patent US20100305060A1, “Nucleoside Prodrugs and Uses Thereof” (Ligand Pharmaceuticals Incorporated, priority 2007, published 2010).

Structures are written as SMILES. Read-outs that look alike come from different tables or passages of the source.

Data set [1] concerns HCV. The note with it: phase 2 study, 1500 mg BID for 14 days; cited from earlier work.
The subject of data set [2] is HCV. As to conditions: chimpanzee, 7 days, cited from earlier work.
Data set [3] has as its target T1, Hepatitis C virus NS5B polymerase (Hepatitis C virus genotype 1b, UniProt Q9WMX2).
T1 construct: Hepatitis C virus NS5B polymerase is an RNA-dependent RNA polymerase (RdRp)
As to conditions: compound tested as its triphosphate; read-out: NS5b IC50 of NTP; cited from earlier work.

For a further data set, the system named is Replicon. The note with it: cited from earlier work.
The conditions of data set [4]: rat, in vivo, po, 50 mg/kg.
The conditions of data set [5]: rat, in vivo, po, 50 mg/kg; cited from earlier work.

T1 sequence (Q9WMX2 2420-3010): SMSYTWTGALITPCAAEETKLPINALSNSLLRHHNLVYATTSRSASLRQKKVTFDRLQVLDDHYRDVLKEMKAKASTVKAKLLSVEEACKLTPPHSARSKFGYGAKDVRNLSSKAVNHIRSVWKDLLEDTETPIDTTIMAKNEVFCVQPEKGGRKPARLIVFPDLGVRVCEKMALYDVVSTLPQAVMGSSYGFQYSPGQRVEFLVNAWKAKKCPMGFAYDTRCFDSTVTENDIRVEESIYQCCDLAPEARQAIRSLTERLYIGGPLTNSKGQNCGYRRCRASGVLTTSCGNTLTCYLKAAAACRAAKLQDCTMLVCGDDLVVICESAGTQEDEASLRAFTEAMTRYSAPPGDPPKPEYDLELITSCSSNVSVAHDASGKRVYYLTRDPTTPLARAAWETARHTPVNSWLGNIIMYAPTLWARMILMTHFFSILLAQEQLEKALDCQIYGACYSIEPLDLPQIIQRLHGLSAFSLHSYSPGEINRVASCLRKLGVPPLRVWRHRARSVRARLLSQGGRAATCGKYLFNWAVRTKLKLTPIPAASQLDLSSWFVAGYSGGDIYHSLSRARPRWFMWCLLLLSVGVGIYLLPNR

For `CC(C)C(=O)OC[C@@]1(N=[N+]=[N-])O[C@@H](n2ccc(N)nc2=O)[C@H](OC(=O)C(C)C)[C@@H]1OC(=O)C(C)C` [Compound 81626], the “mean reduction in serum viral titre” value in the data set on HCV [1] was 1.2 log10. `C[C@@]1(O)[C@H](O)[C@@H](CO)O[C@H]1n1ccc2c(N)ncnc21` [MK-0608]: in the data set on HCV [2] (intravenous 2 mg/kg/day), the “reduction in viral titre” value was above 5 log10. Turning to `CC(C)[C@H](N)C(=O)O[C@@H]1[C@@H](CO)O[C@@H](n2ccc(N)nc2=O)[C@]1(C)O` [NM283], in the data set with HCV [2] (16.6 mg/kg/day), the “reduction in viral titre” value was 1.15 log10. `C[C@@]1(F)[C@H](O)[C@@H](CO)O[C@H]1n1ccc(N)nc1=O` [PSI-6130, β-D-2′-deoxy-2′-fluoro-2′-C-methylcytidine]: the IC50 in data set [3] is 130 nM. Also, in the data set with Replicon, the EC50 was 600 nM and the “activity in the replicon assay” value is “potent”. For `COC(=O)[C@H](C)NP(=O)(OC[C@H]1O[C@@H](n2ccc(=O)[nH]c2=O)[C@](C)(F)[C@@H]1O)Oc1ccccc1` (stereo partly drawn) [PSI-7672], the 50% effective concentration (EC50) in the data set with Replicon is 1600 nM. As to `CC(C)OC(=O)[C@H](C)NP(=O)(OC[C@H]1O[C@@H](n2ccc(=O)[nH]c2=O)[C@](C)(F)[C@@H]1O)Oc1ccccc1` (stereo partly drawn) [PSI-7851], the “liver triphosphate level converted to molar units” value in data set [4] worked out at 5.1 nmol/g. The liver triphosphate levels in data set [5] is listed as 2550 ng/g. With `C[C@@]1(F)[C@H](O)[C@@H](CO)O[C@H]1n1ccc(=O)[nH]c1=O` [RO2433, 2′-deoxy-2′-fluoro-2′-C-methyl-uridine], the IC50 in data set [3] is 520 nM. For the same molecule, in the data set on Replicon, the 50% effective concentration (EC50) was above 100000 nM and the “activity in the replicon assay” value is “inactive”.
